#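 1) Cells in 96-well plates. 2) Compound, 48 h, 5 concentrations. 3) Linear interpolation between surrounding doses. 4) Unreached endpoint = highest concentration. Here, GI50 denotes the concentration required for 50% inhibition of growth. TGI is the concentration that stops growth completely.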
# Key:
# Assay in all cases: NCI anticancer screen, dose series, 48 h
# EKVX NSCLC = tested on: EKVX NSCLC
# SF-539 CNS = tested on: SF-539 CNS
# A549 NSCLC = tested on: A549 NSCLC
# MDA-MB-435 = tested on: MDA-MB-435
# UO-31 renal = tested on: UO-31 renal
# UACC-257 melanoma = tested on: UACC-257 melanoma
# NCI-H23 lung = tested on: NCI-H23 lung
# RPMI-8226 leukemia = tested on: RPMI-8226 leukemia
# T-47D breast = tested on: T-47D breast
# SW-620 colon = tested on: SW-620 colon
# SNB-19 CNS = tested on: SNB-19 CNS
# K-562 leukemia = tested on: K-562 leukemia
# OVCAR-3 ovarian = tested on: OVCAR-3 ovarian
# NCI-H226 lung = tested on: NCI-H226 lung
# SK-MEL-28 melanoma = tested on: SK-MEL-28 melanoma
# HL-60(TB) leukemia = tested on: HL-60(TB) leukemia
# SNB-75 CNS = tested on: SNB-75 CNS
# HOP-92 NSCLC = tested on: HOP-92 NSCLC
# PC-3 prostate = tested on: PC-3 prostate
# TK-10 renal = tested on: TK-10 renal
# NCI-H460 lung = tested on: NCI-H460 lung
# HOP-62 NSCLC = tested on: HOP-62 NSCLC
# NCI-H522 lung = tested on: NCI-H522 lung
# SK-OV-3 ovarian = tested on: SK-OV-3 ovarian
# OVCAR-5 ovarian = tested on: OVCAR-5 ovarian
# MOLT-4 leukemia = tested on: MOLT-4 leukemia
# SK-MEL-2 melanoma = tested on: SK-MEL-2 melanoma
# HCT-15 colon = tested on: HCT-15 colon
# SR leukemia = tested on: SR leukemia
# 786-0 renal = tested on: 786-0 renal
# HCT-116 colon = tested on: HCT-116 colon
# SF-268 CNS = tested on: SF-268 CNS
# ACHN renal = tested on: ACHN renal
# SK-MEL-5 melanoma = tested on: SK-MEL-5 melanoma
# DU-145 prostate = tested on: DU-145 prostate
# LOX IMVI melanoma = tested on: LOX IMVI melanoma
# CAKI-1 renal = tested on: CAKI-1 renal
# BT-549 breast = tested on: BT-549 breast
# RXF 393 renal = tested on: RXF 393 renal
# MALME-3M melanoma = tested on: MALME-3M melanoma
# A498 renal = tested on: A498 renal
# COLO 205 colon = tested on: COLO 205 colon
# HCC-2998 colon = tested on: HCC-2998 colon
# MCF7 breast = tested on: MCF7 breast
# MDA-MB-231 breast = tested on: MDA-MB-231 breast
# IGROV1 ovarian = tested on: IGROV1 ovarian
# UACC-62 melanoma = tested on: UACC-62 melanoma
# OVCAR-8 ovarian = tested on: OVCAR-8 ovarian
# OVCAR-4 ovarian = tested on: OVCAR-4 ovarian
# KM12 colon = tested on: KM12 colon
# CCRF-CEM leukemia = tested on: CCRF-CEM leukemia
# NCI/ADR-RES ovarian = tested on: NCI/ADR-RES ovarian
# HS 578T breast = tested on: HS 578T breast
# SN12C renal = tested on: SN12C renal
# SF-295 CNS = tested on: SF-295 CNS
# U251 CNS = tested on: U251 CNS
# HT29 colon = tested on: HT29 colon
compound,measurement,setting,value
Cn1cnc2nc(Cl)nc(Cl)c21,GI50,EKVX NSCLC,13.6 µM
same,TGI,EKVX NSCLC,34.8 µM
same,GI50,SF-539 CNS,0.924 µM
same,TGI,SF-539 CNS,5.53 µM
same,GI50,A549 NSCLC,3.68 µM
same,TGI,A549 NSCLC,> 100 µM
same,GI50,MDA-MB-435,0.445 µM
same,TGI,MDA-MB-435,13.7 µM
same,GI50,UO-31 renal,9.96 µM
same,TGI,UO-31 renal,> 100 µM
same,GI50,UACC-257 melanoma,7.84 µM
same,TGI,UACC-257 melanoma,24.8 µM
same,GI50,NCI-H23 lung,10.4 µM
same,TGI,NCI-H23 lung,34.2 µM
same,GI50,RPMI-8226 leukemia,0.591 µM
same,TGI,RPMI-8226 leukemia,26.4 µM
same,GI50,T-47D breast,0.489 µM
same,TGI,T-47D breast,26.8 µM
same,GI50,SW-620 colon,0.469 µM
same,TGI,SW-620 colon,15.5 µM
same,GI50,SNB-19 CNS,5.79 µM
same,TGI,SNB-19 CNS,57.8 µM
same,GI50,K-562 leukemia,0.713 µM
same,TGI,K-562 leukemia,94.7 µM
same,GI50,OVCAR-3 ovarian,1.84 µM
same,TGI,OVCAR-3 ovarian,6.12 µM
same,GI50,NCI-H226 lung,12.4 µM
same,TGI,NCI-H226 lung,31.4 µM
same,GI50,SK-MEL-28 melanoma,4.35 µM
same,TGI,SK-MEL-28 melanoma,16.5 µM
same,GI50,HL-60(TB) leukemia,3.16 µM
same,TGI,HL-60(TB) leukemia,8.08 µM
same,GI50,SNB-75 CNS,2.48 µM
same,TGI,SNB-75 CNS,13.4 µM
same,GI50,HOP-92 NSCLC,2.09 µM
same,TGI,HOP-92 NSCLC,10.5 µM
same,GI50,PC-3 prostate,0.594 µM
same,TGI,PC-3 prostate,12.8 µM
same,GI50,TK-10 renal,3.84 µM
same,TGI,TK-10 renal,26.2 µM
same,GI50,NCI-H460 lung,2.04 µM
same,TGI,NCI-H460 lung,6.12 µM
same,GI50,HOP-62 NSCLC,2.55 µM
same,TGI,HOP-62 NSCLC,> 100 µM
same,GI50,NCI-H522 lung,1.17 µM
same,TGI,NCI-H522 lung,3.26 µM
same,GI50,SK-OV-3 ovarian,4.32 µM
same,TGI,SK-OV-3 ovarian,> 100 µM
same,GI50,OVCAR-5 ovarian,3.56 µM
same,TGI,OVCAR-5 ovarian,19.9 µM
same,GI50,MOLT-4 leukemia,5.26 µM
same,TGI,MOLT-4 leukemia,36.2 µM
same,GI50,SK-MEL-2 melanoma,2.7 µM
same,TGI,SK-MEL-2 melanoma,10.2 µM
same,GI50,HCT-15 colon,2.58 µM
same,TGI,HCT-15 colon,20.7 µM
same,GI50,SR leukemia,0.599 µM
same,TGI,SR leukemia,28.7 µM
same,GI50,786-0 renal,1.01 µM
same,TGI,786-0 renal,> 100 µM
same,GI50,HCT-116 colon,0.323 µM
same,TGI,HCT-116 colon,13.3 µM
same,GI50,SF-268 CNS,3.22 µM
same,TGI,SF-268 CNS,38.2 µM
same,GI50,ACHN renal,1.44 µM
same,TGI,ACHN renal,18.5 µM
same,GI50,SK-MEL-5 melanoma,2.7 µM
same,TGI,SK-MEL-5 melanoma,10.8 µM
same,GI50,DU-145 prostate,1.65 µM
same,TGI,DU-145 prostate,4.87 µM
same,GI50,LOX IMVI melanoma,0.406 µM
same,TGI,LOX IMVI melanoma,16.8 µM
same,GI50,CAKI-1 renal,1.08 µM
same,TGI,CAKI-1 renal,3.26 µM
same,GI50,BT-549 breast,10.7 µM
same,TGI,BT-549 breast,66.6 µM
same,GI50,RXF 393 renal,2.39 µM
same,TGI,RXF 393 renal,7.09 µM
same,GI50,MALME-3M melanoma,13.6 µM
same,TGI,MALME-3M melanoma,50.3 µM
same,GI50,A498 renal,2.2 µM
same,TGI,A498 renal,6.77 µM
same,GI50,COLO 205 colon,2.18 µM
same,TGI,COLO 205 colon,5.27 µM
same,GI50,HCC-2998 colon,3.85 µM
same,TGI,HCC-2998 colon,15.6 µM
same,GI50,MCF7 breast,0.335 µM
same,TGI,MCF7 breast,13.2 µM
same,GI50,MDA-MB-231 breast,4.26 µM
same,TGI,MDA-MB-231 breast,33.2 µM
same,GI50,IGROV1 ovarian,2.47 µM
same,TGI,IGROV1 ovarian,37.7 µM
same,GI50,UACC-62 melanoma,1.79 µM
same,TGI,UACC-62 melanoma,19.7 µM
same,GI50,OVCAR-8 ovarian,3.5 µM
same,TGI,OVCAR-8 ovarian,26.2 µM
same,GI50,OVCAR-4 ovarian,4.7 µM
same,TGI,OVCAR-4 ovarian,17.6 µM
same,GI50,KM12 colon,0.43 µM
same,TGI,KM12 colon,2.46 µM
same,GI50,CCRF-CEM leukemia,0.84 µM
same,TGI,CCRF-CEM leukemia,22.1 µM
same,GI50,NCI/ADR-RES ovarian,2.76 µM
same,TGI,NCI/ADR-RES ovarian,13 µM
same,GI50,HS 578T breast,2.28 µM
same,TGI,HS 578T breast,7.53 µM
same,GI50,SN12C renal,3.37 µM
same,TGI,SN12C renal,24.1 µM
same,GI50,SF-295 CNS,3.57 µM
same,TGI,SF-295 CNS,> 100 µM
same,GI50,U251 CNS,3.27 µM
same,TGI,U251 CNS,11.7 µM
same,GI50,HT29 colon,0.365 µM
same,TGI,HT29 colon,12.6 µM
